Experimental data taken from patent publication US20090062294A1, “HETEROARYL-SUBSTITUTED UREA MODULATORS OF FATTY ACID AMIDE HYDROLASE” (priority 2007, published 2009).
pIC50: −log10 of the molar value.

How the values were obtained:
FAAH = molecular target: T1, FAAH (Homo sapiens, UniProt O00519); experiment: Assay Method 1: FAAH assay, 3H-anandamide hydrolysis in homogenate of T84 cells or SK-N-MC cells transfected with human FAAH; assay type: biochemical; conditions: average of results, > = solubility limit or highest concentration tested
T1 sequence (O00519 1-579): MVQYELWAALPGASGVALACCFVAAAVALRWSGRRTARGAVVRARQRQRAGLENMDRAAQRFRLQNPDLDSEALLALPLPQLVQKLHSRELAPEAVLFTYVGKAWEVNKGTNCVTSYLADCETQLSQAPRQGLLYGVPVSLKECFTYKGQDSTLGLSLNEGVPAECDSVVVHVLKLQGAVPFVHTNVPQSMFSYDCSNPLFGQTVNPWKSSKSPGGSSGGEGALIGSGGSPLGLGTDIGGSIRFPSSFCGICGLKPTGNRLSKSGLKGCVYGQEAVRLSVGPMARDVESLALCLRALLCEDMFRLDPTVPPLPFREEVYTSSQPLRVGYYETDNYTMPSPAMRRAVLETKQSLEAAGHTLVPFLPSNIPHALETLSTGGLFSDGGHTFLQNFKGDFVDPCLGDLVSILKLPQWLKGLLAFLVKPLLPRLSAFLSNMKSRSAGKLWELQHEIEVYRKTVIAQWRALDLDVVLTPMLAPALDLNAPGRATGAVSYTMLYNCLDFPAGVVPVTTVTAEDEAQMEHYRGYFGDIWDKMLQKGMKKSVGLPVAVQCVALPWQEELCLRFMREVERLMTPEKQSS
How it was run: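 Hydrolysis of ^3H-anandamide (80 nM final, added last) was measured over 1 h at rt, using test compound with homogenate of T84 cells or human FAAH-transfected SK-N-MC cells. The homogenization buffer was 125 mM Tris, 1 mM EDTA, 0.02% Triton X-100, pH 9. Unbound labelled ethanolamine was passed through charcoal filters and scintillation-counted.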

rat FAAH = molecular target: T2, rat FAAH (Rattus norvegicus, UniProt P97612); experiment: Assay Method 2: FAAH assay, 3H-anandamide hydrolysis in homogenate of SK-N-MC cells transfected with rat FAAH; assay type: biochemical; conditions: average of results, > = solubility limit or highest concentration tested
T2 sequence (P97612 1-579): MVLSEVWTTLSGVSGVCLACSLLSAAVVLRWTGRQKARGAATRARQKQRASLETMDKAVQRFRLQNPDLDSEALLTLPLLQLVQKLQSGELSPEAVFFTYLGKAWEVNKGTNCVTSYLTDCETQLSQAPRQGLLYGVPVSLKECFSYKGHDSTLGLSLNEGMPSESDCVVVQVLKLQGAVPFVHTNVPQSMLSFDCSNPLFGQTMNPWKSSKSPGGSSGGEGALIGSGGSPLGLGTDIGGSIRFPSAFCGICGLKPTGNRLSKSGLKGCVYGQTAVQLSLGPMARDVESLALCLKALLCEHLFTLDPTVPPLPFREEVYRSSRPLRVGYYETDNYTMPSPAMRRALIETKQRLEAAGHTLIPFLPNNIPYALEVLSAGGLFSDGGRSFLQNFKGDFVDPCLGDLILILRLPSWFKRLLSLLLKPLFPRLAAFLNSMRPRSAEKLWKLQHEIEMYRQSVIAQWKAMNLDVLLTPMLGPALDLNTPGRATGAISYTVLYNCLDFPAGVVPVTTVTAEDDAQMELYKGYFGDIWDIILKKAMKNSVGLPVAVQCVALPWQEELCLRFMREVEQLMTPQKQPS
How it was run: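 Read-out is scintillation counting of [3H]-ethanolamine passing through activated charcoal, after 1 h at rt with 80 nM final [3H]-AEA. Enzyme source: lysate of G418-selected SK-N-MC clones expressing rat FAAH, homogenized in Tris/EDTA/glycerol/0.02% Triton buffer, pH 9.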

Row | Compound | pIC50 (FAAH) | pIC50 (rat FAAH)
1 | O=C(Nc1noc2ccccc12)N1CCN(Cc2ccc(Cl)c(OC(F)(F)F)c2)CC1 [Example 105, N-1,2-Benzisoxazol-3-yl-4-[4-chloro-3-(trifluoromethoxy)benzyl]-piperazine-1-carboxamide] | 7.00 | 7.89
2 | O=C(Nc1noc2ccccc12)N1CCN(Cc2ccc(F)c(OC(F)(F)F)c2)CC1 [Example 106, N-1,2-Benzisoxazol-3-yl-4-[4-fluoro-3-(trifluoromethoxy)benzyl]-piperazine-1-carboxamide] | 7.10 | 7.57
3 | O=C(Nc1noc2ccccc12)N1CCN(Cc2ccc(OC(F)(F)F)c(Cl)c2)CC1 [Example 107, N-1,2-Benzisoxazol-3-yl-4-[3-chloro-4-(trifluoromethoxy)benzyl]-piperazine-1-carboxamide] | 7.10 | 7.43
4 | O=C(Nc1noc2ccccc12)N1CCN(Cc2ccc(OC(F)(F)F)c(F)c2)CC1 [Example 108, N-1,2-Benzisoxazol-3-yl-4-[3-fluoro-4-(trifluoromethoxy)benzyl]-piperazine-1-carboxamide] | 6.85 | 7.30
5 | O=C(Nc1noc2ccccc12)N1CCN(Cc2cccc(Oc3ccccc3)c2)CC1 [Example 110, N-1,2-Benzisoxazol-3-yl-4-(3-phenoxybenzyl)piperazine-1-carboxamide] | 7.35 | 7.38
6 | O=C(Nc1noc2ccccc12)N1CCN(Cc2ccc3c(c2)OCO3)CC1 [Example 116, N-1,2-Benzisoxazol-3-yl-4-(1,3-benzodioxol-5-ylmethyl)piperazine-1-carboxamide] | 6.40 | 6.12
7 | O=C(Nc1noc2ccccc12)N1CCN(Cc2cnc3ccccc3c2)CC1 [Example 117, N-1,2-Benzisoxazol-3-yl-4-(quinolin-3-ylmethyl)piperazine-1-carboxamide] | 6.89 | 6.36
8 | O=C(Nc1noc2ccccc12)N1CCN(Cc2ccc3[nH]ccc3c2)CC1 [Example 118, N-1,2-Benzisoxazol-3-yl-4-(1H-indol-5-ylmethyl)piperazine-1-carboxamide] | 5.74 | 5.10
9 | O=C(Nc1noc2ccccc12)N1CCN(Cc2cccc(Oc3ccc4ccccc4c3)c2)CC1 [Example 119, N-1,2-Benzisoxazol-3-yl-4-[3-(naphthalen-2-yloxy)benzyl]piperazine-1-carboxamide] | 7.35 | 8.05
10 | O=C(Nc1noc2ccccc12)N1CCN(Cc2ccc(Br)cc2)CC1 [Example 120, N-1,2-Benzisoxazol-3-yl-4-(4-bromobenzyl)piperazine-1-carboxamide] | 7.10 | 6.92
11 | O=C(Nc1noc2ccccc12)N1CCN(Cc2cccc(Oc3ccccc3Cl)c2)CC1 [Example 122, N-1,2-Benzisoxazol-3-yl-4-[3-(2-chlorophenoxy)benzyl]piperazine-1-carboxamide] | 6.83 | 6.94
12 | O=C(Nc1noc2ccccc12)N1CCN(Cc2ccc3ccccc3n2)CC1 [Example 124, 4-Quinolin-2-ylmethyl-piperazine-1-carboxylic acid benzo[d]isoxazol-3-ylamide] | 7.26 | 6.70
13 | O=C(Nc1noc2ccccc12)N1CCN(Cc2cc3ccccc3o2)CC1 [Example 126, 4-Benzofuran-2-ylmethyl-piperazine-1-carboxylic acid benzo[d]isoxazol-3-ylamide] | 7.22 | 6.70
14 | O=C(Nc1noc2ccccc12)N1CCN(Cc2cccc(Oc3cccc(Cl)c3)c2)CC1 [Example 127, N-1,2-Benzisoxazol-3-yl-4-[3-(3-chlorophenoxy)benzyl]piperazine-1-carboxamide] | 7.40 | 7.40
15 | N#Cc1ccc(Oc2cccc(CN3CCN(C(=O)Nc4noc5ccccc45)CC3)c2)cc1C(F)(F)F [Example 128, N-1,2-Benzisoxazol-3-yl-4-{3-[4-cyano-3-(trifluoromethyl)phenoxy]benzyl}piperazine-1-carboxamide] | 6.64 | 6.40
16 | N#Cc1cccc(Oc2cccc(CN3CCN(C(=O)Nc4noc5ccccc45)CC3)c2)c1 [Example 129, N-1,2-Benzisoxazol-3-yl-4-[3-(3-cyanophenoxy)benzyl]piperazine-1-carboxamide] | 7.10 | 6.92

The remaining molecules from weak to strong by pIC50 (FAAH), led by results:

Row | pIC50 (FAAH) | pIC50 (rat FAAH) | Compound
17 | 7.40 | 6.57 | O=C(Nc1noc2ccccc12)N1CCN(Cc2ccc(OCc3ccccc3)cc2)CC1 [Example 112, N-1,2-Benzisoxazol-3-yl-4-[4-(benzyloxy)benzyl]piperazine-1-carboxamide]
18 | 7.40 | 7.60 | O=C(Nc1noc2ccccc12)N1CCN(Cc2ccc(Br)c(F)c2)CC1 [Example 115, N-1,2-Benzisoxazol-3-yl-4-(4-bromo-3-fluorobenzyl)piperazine-1-carboxamide]
19 | 7.43 | 6.16 | COc1ccc(NC(=O)N2CCN(Cc3cccc(Oc4ccc(Cl)cc4)c3)CC2)nn1 [Example 104, 4-[3-(4-Chlorophenoxy)benzyl]-N-(6-methoxypyridazin-3-yl)piperazine-1-carboxamide]
20 | 7.46 | 7.40 | O=C(Nc1noc2ccccc12)N1CCN(Cc2ccc(Cl)c(Cl)c2)CC1 [Example 111, N-1,2-Benzisoxazol-3-yl-4-(3,4-dichlorobenzyl)piperazine-1-carboxamide]
21 | 7.70 | 7.52 | O=C(Nc1noc2ccccc12)N1CCN(Cc2cc3ccccc3s2)CC1 [Example 113, N-1,2-Benzisoxazol-3-yl-4-(1-benzothiophen-2-ylmethyl)piperazine-1-carboxamide]
22 | 7.70 | 7.70 | O=C(Nc1noc2ccccc12)N1CCN(Cc2cccc(Oc3ccc4ncccc4c3)c2)CC1 [Example 114, N-1,2-Benzisoxazol-3-yl-4-[3-(quinolin-6-yloxy)benzyl]piperazine-1-carboxamide]
23 | 7.70 | 7.40 | O=C(Nc1noc2ccccc12)N1CCN(Cc2ccc3ccccc3c2)CC1 [Example 123, 4-Naphthalen-2-ylmethyl-piperazine-1-carboxylic acid benzo[d]isoxazol-3-ylamide]
24 | 7.70 | 8.40 | O=C(Nc1noc2ccccc12)N1CCN(Cc2cccc(Oc3ccc(SC(F)(F)F)cc3)c2)CC1 [Example 130, N-1,2-Benzisoxazol-3-yl-4-(3-{4-[(trifluoromethyl)sulfanyl]phenoxy}-benzyl)piperazine-1-carboxamide]
25 | 7.77 | 7.60 | O=C(Nc1noc2ccccc12)N1CCN(Cc2ccc(Br)c(Br)c2)CC1 [Example 121, N-1,2-Benzisoxazol-3-yl-4-(3,4-dibromobenzyl)piperazine-1-carboxamide]
26 | 7.82 | 7.92 | N#Cc1ccc(Oc2cccc(CN3CCN(C(=O)Nc4noc5ccccc45)CC3)c2)cc1 [Example 125, 4-[3-(4-Cyano-phenoxy)-benzyl]-piperazine-1-carboxylic acid benzo[d]isoxazol-3-ylamide]
27 | 8.15 | 8.40 | O=C(Nc1noc2ccccc12)N1CCN(Cc2cccc(Oc3ccc4c(c3)OC(F)(F)O4)c2)CC1 [Example 131, N-1,2-Benzisoxazol-3-yl-4-{3-[(2,2-difluoro-1,3-benzodioxol-5-yl)oxy]benzyl}piperazine-1-carboxamide]
